# Data: patent US7183300B2, “Inhibitors of HIV-1 capsid formation: substituted aryl aminomethyl thiazole ureas and analogues thereof” (priority 2004, dated 2007)
# Columns and labels:
# HIV-1 capsid protein = target: T1, HIV-1 capsid protein (Human immunodeficiency virus type 1 group M subtype B, UniProt P12493); experiment: biochemical; assay type: binding
# T1 construct: aqueous solutions containing recombinant, ^15N-labeled HIV-1 capsid protein
# Protocol: Capsid protein ligands are also evaluated by NMR to determine their equilibrium dissociation constant from the capsid binding site.
# Concentrated DMSO-d6 solutions of test compounds are prepared for NMR analysis. 2D ^1H-^15N HSQC NMR spectra are obtained for aqueous solutions containing recombinant, ^15N-labeled HIV-1 capsid protein and 10 microliters of added test compound. Data is obtained using a 600 MHz NMR instrument equipped with a cryoprobe. […] Binding is indicated by perturbation relative to capsid protein alone (^1HN δδ>0.1 ppm; ^15N δδ>0.5 ppm) of the chemical shifts of the following residues: Glu29, Lys30, Ala31, Phe32, Ser33, Glu35, Val36, Val59, Gly60, Gly61, His62, Gln63, Ala65, Met144 and Tyr145, all located at or near the apex of a helical bundle (helices 1, 2, 3, 4 and 7).
# Equilibrium dissociation constants are calculated from 2D NMR data of selected capsid ligands. […] The chemical shift changes of perturbed by test compound binding are fit to 1:1 binding isotherms.
# CA = CA (Human immunodeficiency virus type 1 group M subtype B, UniProt P12493); experiment: mass action calculation of CAP-1 bound to CA/Gag in immature virions; parameters: species or system HIV-1
# Protocol: This is likely due to the high local concentration of Gag molecules in assembled virions (14 mM), which favors binding by ligands with even modest affinities, e.g., N-(3-chloro-4-methylphenyl)-N′-[2-[([5-[(dimethylamino)-methyl]-2-furyl]-methyl)-sulfanyl]ethyl]urea (CAP-1).
# Thus conservatively assuming that cytosolic drug concentrations in the budding virus and cells are equal (100 μM), the percentage of viral CAP-1 molecules bound to CA can be estimated by standard mass action calculations which affords a value for the concentration of bound CAP-1 ([CA:CAP-1]) of 94 μM.
smiles,measurement,setting,value
"Cc1ccc(NC(=O)NCCSCc2ccc(CN(C)C)o2)cc1Cl [CAP-1, N-(3-chloro-4-methylphenyl)-N′-[2-[([5-[(dimethylamino)-methyl]-2-furyl]-methyl)-sulfanyl]ethyl]urea]",Kd,HIV-1 capsid protein,820 ± 180 µM
same,binding to the HIV-1 capsid protein (HSQC chemical shift perturbation),HIV-1 capsid protein; recombinant 15N-labeled HIV-1 capsid protein,site-specific binding
same,CAP-1 molecules in immature virions bound to Gag,CA; 100 μM dose,94%
same,concentration of bound CAP-1 ([CA:CAP-1]),"CA; assuming drug concentration 100 μM, Gag in assembled virions 14 mM",94 µM
